Experimental findings from ChEMBL document CHEMBL1201862, “PubChem BioAssay data set” (2004) are described below.

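Five concentrations, 48 hours, 96-well plates. Here, GI50 denotes the concentration required for 50% inhibition of growth.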 Active and inactive are the calls of the source. No stated cut-off is given here; in the data, active = GI50 up to about 1.1 µM and inactive = higher. A value given as a limit tells only on which side of the number the result lay.

Common to all, as to assay: DTP human tumour cell line panel, 48 h
Assay [1] has as its system A498.
The subject of assay [2] is BT-549.
For assay [3], the system named is CCRF-CEM.
Assay [4] concerns HOP-92.
The test system of assay [5] is Hs-578T.
The subject of assay [6] is IGROV-1.
Assay [7] has as its system KM12.
For assay [8], the system named is MCF7.
Assay [9] deals with MDA-MB-231.
The subject of assay [10] is OVCAR-5.
The test system of assay [11] is OVCAR-8.
Assay [12] has as its system PC-3.
The subject of assay [13] is SF-295.
Assay [14] deals with SF-539.
In assay [15] the test system is SK-MEL-28.
In assay [16] the test system is SNB-75.
Assay [17] deals with SW-620.
The subject of assay [18] is UACC-62.
Assay [19] deals with OVCAR-4.

As for `O=C(CCc1ccc(O)c(O)c1)NCCc1cc(O)cc(O)c1`, the GI50 is > 100 µM (inactive) in assay [1]; > 100 µM (inactive) in assay [2]; 29.2 µM (inactive) in assay [3]; > 100 µM (inactive) in [4]; > 100 µM (inactive) in [5]; > 100 µM (inactive) in assay [6]. The GI50 in [7] is > 100 µM (inactive); in [8], 66.8 µM (inactive); in [9], > 100 µM (inactive); in assay [10], > 100 µM (inactive); in assay [11], > 100 µM (inactive); in assay [12] it was > 100 µM (inactive). The GI50 in [13], in assay [14], in assay [15], in [16], in assay [17] and in assay [18] was > 100 µM (inactive) each time.
Turning to `O=[N+]([O-])c1cccc2nc3ccccc3c(NCCc3cccc[n+]3[O-])c12`, the GI50 in [1] is 0.0475 µM (active); in [2], < 0.0165 µM (active); in [3], < 0.0318 µM (active); in assay [4], < 0.0183 µM (active); in [5], 0.0782 µM (active); in assay [7], < 0.0328 µM (active). The GI50 is < 0.0116 µM (active) in assay [8]; < 0.01 µM (active) in assay [9]; 0.0541 µM (active) in [19]; < 0.0194 µM (active) in assay [10]; < 0.0176 µM (active) in assay [11]; < 0.0391 µM (active) in assay [12]. Besides, the GI50 in assay [13] was < 0.0368 µM (active); in assay [14], 0.0407 µM (active); in [15], < 0.01 µM (active); in assay [16] it was < 0.0438 µM (active); in assay [17], < 0.01 µM (active); in assay [18], 0.052 µM (active).
For `O=c1c2c3c(sc2nc2n1sc1nc4sc5c(c4c(=O)n12)CCCC5)CCCC3`, the GI50 in [1] was > 100 µM (inactive); in assay [2], 21.9 µM (inactive); in assay [3], 24.4 µM (inactive); in [4], 51.2 µM (inactive); in assay [5], 39.6 µM (inactive); in [6], > 100 µM (inactive). Besides, the GI50 in [7] was > 89.7 µM (inactive); in [8], 23.8 µM (inactive); in [9] it was 25.9 µM (inactive); in assay [19], 18.7 µM (inactive); in assay [10] it was > 100 µM (inactive); in [11], 56.6 µM (inactive). Further, the GI50 in [12] was 54.5 µM (inactive); in [13], 64.6 µM (inactive); in assay [14], 56 µM (inactive); in assay [15], > 80.5 µM (inactive); in assay [17], 28.8 µM (inactive); in assay [18] it was 10.9 µM (inactive).
As for `CN(C)CCNC(=O)c1cc(NC(=O)c2cc(NC(=O)CC/C=C3/[C@@H]4CC[C@H]3N=N4)cn2C)cn1C`, the GI50 in assay [1], in assay [2], in [3], in assay [4], in assay [5] and in assay [6] was > 100 µM (inactive) in each case. The GI50 in assay [7], in assay [8], in assay [9], in assay [19], in assay [10] and in [11] was > 100 µM (inactive) throughout. Further, the GI50 in [12], in assay [13], in assay [14], in assay [15], in assay [16] and in [17] was > 100 µM (inactive) throughout.
With `O=C(c1cc2ccccc2cc1O)N1CCCCC1`, the GI50 in [1] was 15.2 µM (inactive); in [2], 35.2 µM (inactive); in assay [3] it was 14.5 µM (inactive); in [4] it was 11.4 µM (inactive); in [5], 46 µM (inactive); in assay [6], 13.5 µM (inactive). Moreover, the GI50 in [7] was 33.6 µM (inactive); in assay [8], 26.4 µM (inactive); in [9], 68.2 µM (inactive); in [19], 37.7 µM (inactive); in assay [11], 20.8 µM (inactive); in assay [12], 29.8 µM (inactive). For the same compound, the GI50 is 25.4 µM (inactive) in assay [13]; 37.3 µM (inactive) in assay [14]; 41.8 µM (inactive) in [15]; 31.5 µM (inactive) in [16]; 48 µM (inactive) in assay [17]; 31.4 µM (inactive) in [18].
`Clc1ccc(Nc2nn3c(CCCCCCCCc4nnc5sc(Nc6ccc(Cl)cc6)nn45)nnc3s2)cc1`: the GI50 in assay [1] is > 100 µM (inactive); in assay [2] it was > 100 µM (inactive); in assay [3] it was 17.6 µM (inactive); in assay [4], > 100 µM (inactive); in assay [5] it was > 100 µM (inactive); in assay [7] it was > 100 µM (inactive). Also, the GI50 is > 100 µM (inactive) in assay [8]; 29.4 µM (inactive) in [9]; > 100 µM (inactive) in [19]; > 100 µM (inactive) in assay [10]; > 100 µM (inactive) in assay [11]; > 100 µM (inactive) in [12]. For the same compound, the GI50 is 36 µM (inactive) in [13]; > 100 µM (inactive) in assay [14]; > 100 µM (inactive) in assay [15]; 23.3 µM (inactive) in [16]; > 100 µM (inactive) in assay [17]; > 100 µM (inactive) in assay [18].
For `Cc1cc(S(=O)(=O)NC(=C(C#N)C#N)[n+]2ccc(N(C)C)cc2)c([S-])cc1Cl`, the GI50 in assay [1] is > 100 µM (inactive); in assay [2], > 100 µM (inactive); in [3] it was > 100 µM (inactive); in assay [4], 28.7 µM (inactive); in assay [5], > 100 µM (inactive); in [6] it was > 100 µM (inactive). For the same compound, the GI50 was > 100 µM (inactive) in assay [7]; > 100 µM (inactive) in assay [8]; > 100 µM (inactive) in assay [9]; 99.5 µM (inactive) in assay [19]; > 100 µM (inactive) in assay [10]; > 100 µM (inactive) in assay [11]. The GI50 in [12], in assay [13], in assay [14], in assay [15] and in [18] was > 100 µM (inactive) throughout.
On to `CCOC(=O)C(=NN(C)c1ncccc1N)C(=O)OCC`, for which the GI50 is 39.8 µM (inactive) in assay [1]; > 100 µM (inactive) in [2]; 37.5 µM (inactive) in assay [3]; 23.3 µM (inactive) in assay [4]; > 100 µM (inactive) in [5]; 61 µM (inactive) in assay [6]. Moreover, the GI50 in [7] was > 100 µM (inactive); in assay [8], 20.5 µM (inactive); in [9] it was 25.6 µM (inactive); in assay [19], 97.3 µM (inactive); in assay [11], 38.3 µM (inactive); in [12] it was 62.5 µM (inactive). Also, the GI50 was > 100 µM (inactive) in assay [13]; 22.9 µM (inactive) in [14]; > 100 µM (inactive) in assay [15]; > 100 µM (inactive) in assay [16]; 27.6 µM (inactive) in assay [17]; > 100 µM (inactive) in assay [18].
With `N#Cc1c(C#N)c(-c2cccc([N+](=O)[O-])c2)n(-c2ccccc2)c1N`, the GI50 in [1] is 17.8 µM (inactive); in [2], 5.11 µM (inactive); in assay [3], > 100 µM (inactive); in [4], 17.8 µM (inactive); in assay [5], 55.1 µM (inactive); in [6], 89.1 µM (inactive). Also, the GI50 in assay [7] was > 100 µM (inactive); in assay [8] it was > 100 µM (inactive); in assay [9] it was 38.7 µM (inactive); in assay [19] it was 11.5 µM (inactive); in assay [10], > 100 µM (inactive); in [11], 99.3 µM (inactive). The GI50 in [12] was > 100 µM (inactive); in assay [13], 63.2 µM (inactive); in assay [14], 21.1 µM (inactive); in assay [16] it was 3.33 µM (inactive); in assay [17] it was > 100 µM (inactive); in [18] it was 66.1 µM (inactive).
For `C=C1C[C@@H]2O[C@H]3[C@H]4[C@@H](C[C@@H](C)[C@@H](OC(C)=O)[C@H]42)[C@@H](C)CO[C@@]3(C)[C@H](OC(=O)CCCCCCC)CC1=O`, the GI50 was 17.2 µM (inactive) in assay [1]; 18.1 µM (inactive) in assay [2]; 5.85 µM (inactive) in [3]; > 10 µM (inactive) in [4]; 17.1 µM (inactive) in assay [5]; 21.5 µM (inactive) in assay [6]. The GI50 in assay [7] is 12.1 µM (inactive); in [8], 18.5 µM (inactive); in assay [9], 20.8 µM (inactive); in assay [10], 7.29 µM (inactive); in [11], 13.6 µM (inactive); in assay [12], 9.82 µM (inactive). Further, the GI50 in [13] was 19.5 µM (inactive); in [14] it was 22 µM (inactive); in assay [15], 14.9 µM (inactive); in assay [16], 12.1 µM (inactive); in assay [17], 15.2 µM (inactive); in assay [18], 16.5 µM (inactive).
For `COc1ccc(C2(c3ccc(OC)cc3)OC(=O)c3cccc4cccc2c34)cc1`, the GI50 was > 100 µM (inactive) in [1]; 11.4 µM (inactive) in assay [2]; 3.18 µM (inactive) in [3]; > 100 µM (inactive) in assay [4]; 9.51 µM (inactive) in assay [5]; 5.93 µM (inactive) in assay [6]. Moreover, the GI50 was 3.85 µM (inactive) in assay [7]; 4.78 µM (inactive) in assay [8]; > 100 µM (inactive) in [9]; 4.85 µM (inactive) in assay [19]; > 100 µM (inactive) in [10]; 15.7 µM (inactive) in assay [11]. In addition, the GI50 in assay [12] is 2.16 µM (inactive); in assay [13] it was 3.97 µM (inactive); in assay [14], 3.48 µM (inactive); in assay [17], 5.18 µM (inactive); in [18] it was 5.28 µM (inactive).
